Several values for one entry are separate records, joined by “and”; a condition that tells them apart may be missing. Equal entries are not always repeated.
Assay: mn = molality of the nth substance listed, in mol/kg
Conditions: 298.15 K, 101.33 kPa, Liquid

CC[N+](CC)(CC)CC.[Br-] [tetraethylammonium bromide] + O
Conditions	mass density
m1 = 0.102	1000.71 kg/m3
m1 = 0.4023	1010.95 kg/m3
m1 = 0.549	1015.83 kg/m3
m1 = 1.212	1035.35 kg/m3 and 1035.67 kg/m3

C[N+](C)(C)C.[Br-] [tetramethylammonium bromide] + O
Conditions	mass density
m1 = 0.2579	1006.85 kg/m3
m1 = 0.258	1006.83 kg/m3
m1 = 0.2581	1006.9 kg/m3
m1 = 0.532	1016.59 kg/m3
m1 = 0.5322	1016.42 kg/m3
m1 = 0.5325	1016.59 kg/m3
m1 = 0.8105	1025.86 kg/m3
m1 = 0.8239	1026.24 kg/m3
m1 = 1.134	1036.07 kg/m3 and 1035.72 kg/m3
m1 = 1.839	1046.9 kg/m3

CCCC[N+](CCCC)(CCCC)CCCC.[Br-] [tetrabutylammonium bromide] + O
Conditions	mass density [kg/m3]
m1 = 0.0509	998.2
m1 = 0.1034	999.39
m1 = 0.2709	1003.18
m1 = 0.589	1010.09
m1 = 0.7318	1013.27

— the NIST ThermoML archive (doi:10.1016/j.jct.2003.09.008)
